Reference: US20230110378A1, “MONOBACTAM COMPOUND AND USE THEREOF” (EVOPOINT BIOSCIENCES CO., LTD., priority 2019, published 2023)
Values after ≈ are worked out from the molar mass of the structure shown.

What was measured:
Assay in all cases: Minimum inhibitory concentration (broth microdilution, CLSI)
Assay type in all cases: cell-based
[1] = test system: Enterobacter cloacae HDBECL 30030; conditions: HDBECL30030
Method: (§1) 103 bacterial strains used for the minimum inhibitory concentration test were frozen in a −80° C. ULT freezer and thawed 2 days before use. A small amount of frozen microorganism bacteria were scraped using a sterile inoculating loop, streaked onto a suitable solid culture dish for inoculation, and then cultured for about 20 h at 35 t 2° C. in a normal incubator. • Proteus mirabilis HDBPM 40: MA, normal atmospheric environment • The remaining 102 strains of bacteria: TSA, normal atmospheric environment
(§2) 5-10 colonies with similar morphology were picked from the culture dish using a sterile inoculating loop and then re-streaked onto a corresponding solid culture dish. Then the dish was incubated in a normal incubator at 35 t 2° C. for about 20 h.
(§3) 5-10 single microbial colonies were picked from the solid culture dish, resuspended in 500 μL of sterile normal saline (0.9% NaCl), and adjusted to an OD600 of about 0.15 with a spectrophotometer.
(§4) The bacteria were then diluted 300-fold with 1.02×CAMHB to an inoculation concentration of 2×10^5 CFU/mL.
(§5) • There were a total of 3 assay plate patterns, one of which was used for each assay. • 8 rows of the assay plate (rows A-H) were for 8 test compounds, respectively. The highest test concentration of the compounds was 16, 32 or 64 μg/mL, and each compound was diluted 2-fold. • Growth control (GC): a medium containing microbial inoculum (1.02×CAMHB) and dimethylsulfoxide (DMSO) but no compound.
(§6) The test and reference compounds were dissolved in DMSO or H2O to prepare 6.4 mg/mL stock solutions. The stock solutions were diluted to prepare standby solutions with certain concentrations, and the volumes of the standby solutions were determined according to the experimental design. Corresponding volumes of the standby solutions were transferred to the starting wells of a dilution plate (A1-H1), and half the starting-well volume of DMSO to the other wells. Each compound was diluted 2-fold sequentially from column 1 to column 11 (e.g., transferring 30 μL of DMSO to columns 2-12 first, then pipetting 30 μL of the compounds from column 1 to column 2 and mixing them well, then pipetting 30 μL of the compounds from column 2 to column 3 and mixing them well, then pipetting 30 μL of the compounds from column 3 to column 4 and mixing them well, and so on to column 11).
(§7) 1 or 2 μL of the compounds and DMSO were transferred from the compound plate to corresponding wells of the assay plates.
(§8) 98 μL of corresponding bacterial inocula were added to the assay plates.
(§9) After addition, the assay plates were covered with sterile covers. The mixtures in the assay plates were centrifuged in a centrifuge at 800 rpm for 30 s, mixed well on a microplate shaker at 400 rpm for 1 min, and incubated in a normal incubator at 35 t 2° C. for 20-24 h.
(§10) The assay plates were placed on a plate reading device, and the speculum was adjusted to observe and record the growth condition of bacteria in each well. In the mean time, each assay plate was photographed with QCount system.
(§11) The minimum inhibitory concentration of each compound was recorded by reference to guidelines from the Clinical and Laboratory Standards Institute.
(§12) The minimum inhibitory concentrations of the compounds against experimental strains were tested in this study by reference to the medium microdilution method as indicated by the Clinical and Laboratory Standards Institute. Compounds were diluted two-fold in 96-well plates from the highest detection concentration of 16, 32 or 64 μg/mL. The bacterial inocula in the assay plates were thawed from corresponding medium plates and diluted in 1.02×CAMHB, while growth controls (GC wells) were set up in the assay plates. The minimum inhibitory concentration of each compound against different bacteria was observed and recorded after the assay plates were incubated in a normal incubator at 35 t 2° C. for about 20 h. The minimum inhibitory concentration values for the different compounds are listed in the list below.

[2] = test system: Escherichia coli HDBEC 30008; conditions: HDBEC30008
Method: as §1, §2, §3, §4, §5, §6, §7, §8, §9, §10, §11, §12

[3] = test system: Escherichia coli HDBEC 30016; conditions: HDBEC30016
Method: as §1, §2, §3, §4, §5, §6, §7, §8, §9, §10, §11, §12

[4] = test system: Escherichia coli HDBEC 30048; conditions: HDBEC30048
Method: as §1, §2, §3, §4, §5, §6, §7, §8, §9, §10, §11, §12

[5] = test system: Klebsiella pneumoniae HDBKP 30006; conditions: HDBKP30006
Method: as §1, §2, §3, §4, §5, §6, §7, §8, §9, §10, §11, §12

[6] = test system: Klebsiella pneumoniae HDBKP 9153; conditions: HDBKP9153
Method: as §1, §2, §3, §4, §5, §6, §7, §8, §9, §10, §11, §12

[7] = test system: Klebsiella pneumoniae HDBKP 9249; conditions: HDBKP9249
Method: as §1, §2, §3, §4, §5, §6, §7, §8, §9, §10, §11, §12

[8] = test system: Proteus mirabilis HDBPM 40; conditions: HDBPM40
Method: as §1, §2, §3, §4, §5, §6, §7, §8, §9, §10, §11, §12

[9] = test system: Pseudomonas aeruginosa HDBPA 5679; conditions: HDBPA5679
Method: as §1, §2, §3, §4, §5, §6, §7, §8, §9, §10, §11, §12

| SMILES | MIC [1] | MIC [2] | MIC [3] | MIC [4] | MIC [5] | MIC [6] | MIC [7] | MIC [8] | MIC [9] |
| --- | --- | --- | --- | --- | --- | --- | --- | --- | --- |
| C[n+]1cc(-c2cc(C(=O)NC[C@@H]3[C@H](NC(=O)/C(=N\OC(C)(C)C(=O)O)c4csc(N)n4)C(=O)N3S(=O)(=O)O)on2)cn1CCCN [Compound I-1] | < 4 µg/mL | 4 to 8 µg/mL | > 16 µg/mL | > 16 µg/mL | 4 to 8 µg/mL | > 16 µg/mL | < 4 µg/mL | < 4 µg/mL | > 16 µg/mL |
| C[n+]1cc(-c2ncc(C(=O)NC[C@@H]3[C@H](NC(=O)/C(=N\OC(C)(C)C(=O)O)c4csc(N)n4)C(=O)N3S(=O)(=O)O)s2)cn1CCCN [Compound I-2] | < 4 µg/mL | < 4 µg/mL | > 16 µg/mL | > 16 µg/mL | < 4 µg/mL | < 4 µg/mL | < 4 µg/mL | < 4 µg/mL | > 16 µg/mL |
| CC(C)(O/N=C(\C(=O)N[C@@H]1C(=O)N(S(=O)(=O)O)[C@@H]1CNC(=O)c1cc(-c2cc[n+](CCNC(=N)N)cc2)no1)c1csc(N)n1)C(=O)O [Compound I-3] | < 4 µg/mL | < 4 µg/mL | > 16 µg/mL | > 16 µg/mL | 4 to 8 µg/mL | > 16 µg/mL | < 4 µg/mL | < 4 µg/mL | > 16 µg/mL |
| CC(C)(O/N=C(\C(=O)N[C@@H]1C(=O)N(S(=O)(=O)O)[C@@H]1CNC(=O)c1cc(-c2cc[n+](CCN)cc2)no1)c1csc(N)n1)C(=O)O [Compound I-4] | 4 to 8 µg/mL | 4 to 8 µg/mL | > 16 µg/mL | > 16 µg/mL | > 16 µg/mL | > 16 µg/mL | < 4 µg/mL | < 4 µg/mL | > 16 µg/mL |
| CC(C)(O/N=C(\C(=O)N[C@@H]1C(=O)N(S(=O)(=O)O)[C@@H]1CNC(=O)c1cc([C@@H]2CCNC2)no1)c1csc(N)n1)C(=O)O [Compound I-5] | < 4 µg/mL | < 4 µg/mL | > 16 µg/mL | > 16 µg/mL | > 16 µg/mL | > 16 µg/mL | < 4 µg/mL | < 4 µg/mL | > 16 µg/mL |
| CC(C)(O/N=C(\C(=O)N[C@@H]1C(=O)N(S(=O)(=O)O)[C@@H]1CNC(=O)c1cc(C2CNC2)no1)c1csc(N)n1)C(=O)O [Compound I-6] | < 4 µg/mL | < 4 µg/mL | > 16 µg/mL | > 16 µg/mL | > 16 µg/mL | > 16 µg/mL | < 4 µg/mL | < 4 µg/mL | > 16 µg/mL |
| CC(C)(O/N=C(\C(=O)N[C@@H]1C(=O)N(S(=O)(=O)O)[C@@H]1CNC(=O)c1cc([C@@H]2CCN(C(=O)c3ccc(O)c(O)c3F)C2)no1)c1csc(N)n1)C(=O)O [Compound I-8] | < 4 µg/mL | < 4 µg/mL | < 4 µg/mL | < 4 µg/mL | 4 to 8 µg/mL (≈ 5.2 to 10.4 µM) | < 4 µg/mL | 4 to 8 µg/mL (≈ 5.2 to 10.4 µM) | < 4 µg/mL | < 4 µg/mL |
| C[n+]1cc(-c2ncc(C(=O)NC[C@@H]3[C@H](NC(=O)/C(=N\OC(C)(C)C(=O)O)c4csc(N)n4)C(=O)N3S(=O)(=O)O)s2)cn1CC(N)CN (stereo partly drawn) [Compound I-9] | < 4 µg/mL | < 4 µg/mL | > 16 µg/mL | > 16 µg/mL | 4 to 8 µg/mL | 8 to 16 µg/mL | < 4 µg/mL | < 4 µg/mL | > 16 µg/mL |
| C[n+]1cc(-c2ncc(C(=O)NC[C@@H]3[C@H](NC(=O)/C(=N\OC(C)(C)C(=O)O)c4csc(N)n4)C(=O)N3S(=O)(=O)O)s2)cn1CCCNC(=N)N [Compound I-11] | < 4 µg/mL | < 4 µg/mL | 8 to 16 µg/mL | 8 to 16 µg/mL | < 4 µg/mL | < 4 µg/mL | < 4 µg/mL | < 4 µg/mL | > 16 µg/mL |
| C[n+]1cc(-c2ncc(C(=O)NC[C@@H]3[C@H](NC(=O)/C(=N\OC(C)(C)C(=O)O)c4csc(N)n4)C(=O)N3S(=O)(=O)O)s2)cn1CCCNC(=O)c1cc(=O)c(O)cn1O [Compound I-12] | < 4 µg/mL | < 4 µg/mL | < 4 µg/mL | < 4 µg/mL | 8 to 16 µg/mL | < 4 µg/mL | 4 to 8 µg/mL | < 4 µg/mL | < 4 µg/mL |
| C[n+]1cc(C(=O)NC[C@@H]2[C@H](NC(=O)/C(=N\OC(C)(C)C(=O)O)c3csc(N)n3)C(=O)N2S(=O)(=O)O)sc1-c1cnn(CC(N)CN)c1 (stereo partly drawn) [Compound I-13] | 4 to 8 µg/mL | 8 to 16 µg/mL | > 16 µg/mL | > 16 µg/mL | 8 to 16 µg/mL | 4 to 8 µg/mL | < 4 µg/mL | < 4 µg/mL | > 16 µg/mL |
| CC(C)(O/N=C(\C(=O)N[C@@H]1C(=O)N(S(=O)(=O)O)[C@@H]1CNC(=O)c1cc([C@@H]2CCN(C(=O)c3cc(=O)c(O)cn3O)C2)no1)c1nsc(N)n1)C(=O)O [Compound I-14] | < 4 µg/mL | < 4 µg/mL | > 16 µg/mL | < 4 µg/mL | > 16 µg/mL | < 4 µg/mL | > 16 µg/mL | < 4 µg/mL | < 4 µg/mL |
| C[n+]1cc(-c2ncc(C(=O)NC[C@@H]3[C@H](NC(=O)/C(=N\OC(C)(C)C(=O)O)c4nsc(N)n4)C(=O)N3S(=O)(=O)O)s2)cn1CC(N)CN (stereo partly drawn) [Compound I-15] | 4 to 8 µg/mL | 4 to 8 µg/mL | > 16 µg/mL | > 16 µg/mL | > 16 µg/mL | > 16 µg/mL | > 16 µg/mL | < 4 µg/mL | > 16 µg/mL |
